Results on 28 molecules are retold here after patent publication US11273153B2, “MAPK inhibitors” (EverBrilliant Pharma Pty Ltd, priority 2014, dated 2022).

Molecules are shown by their SMILES. Like-named read-outs stand apart in the source and are kept apart here.

In experiment [1] the target is inactive non-phosphorylated p38α MAPK (Homo sapiens (Human), UniProt Q16539). As to the kind of experiment: Fluorescence polarisation (FP) binding assay, inactive enzyme. As for the experimental part: (§1) A number of compounds were also assessed for the inhibition of p38α MAPK activity (www.kinase-screen.mrc.ac.uk) in which a radioactive (^33P-labelled ATP) filter binding assay was used to directly measure phosphate incorporation. Table 1 summarises the binding affinities of the synthesised compounds to both forms of the enzyme as well as the inhibitory activities against p38α MAPK. By way of enabling a comparison with a non-thiophene compound the biological testing was also carried out for known inhibitor RWJ67657, shown in table 1.
Sequence of inactive non-phosphorylated p38α MAPK (Q16539 whole entry): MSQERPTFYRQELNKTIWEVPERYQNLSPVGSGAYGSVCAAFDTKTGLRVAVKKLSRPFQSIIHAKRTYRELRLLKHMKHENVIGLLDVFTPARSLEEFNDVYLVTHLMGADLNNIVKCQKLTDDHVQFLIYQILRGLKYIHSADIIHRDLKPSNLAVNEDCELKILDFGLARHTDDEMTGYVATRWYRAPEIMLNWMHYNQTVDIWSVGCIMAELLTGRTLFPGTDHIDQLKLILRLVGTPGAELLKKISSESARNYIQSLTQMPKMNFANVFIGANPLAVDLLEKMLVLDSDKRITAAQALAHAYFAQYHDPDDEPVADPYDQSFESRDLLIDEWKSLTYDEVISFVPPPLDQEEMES
(§2) FP signals were measured with a PHERAstar microplate reader (BMG Labtech) using black, low-binding half-area 96 well plates (Corning). Each binding data point was carried out in duplicate or triplicate. Data were recorded in millipolarisation (mP) units and measured at an excitation wavelength of 485 nm and an emission wavelength of 520 nm. Tris(hydroxymethyl)aminomethane (Tris) assay buffer was used in all binding experiments and consisted of 10 mM Tris, […] potassium chloride, and 3.5 mM 3-((3-cholamidopropyl)dimethylammonium)-1-propanesulfonate (Chaps) at pH 8.0.
(§3) Test compounds were prepared from dimethylsulfoxide stocks (10 mM). […] Plates were incubated at room temperature for 1 hour and FP signals were recorded. For binding experiments to active p38α MAPK, the FP signals were recorded after 2 hours incubation at room temperature. Data is represented as mean±SEM from two to three independent experiments.
Background: Polarisation of emitted light reports the rotation of a fluorescent probe.

Experiment [2] deals with active phosphorylated p38α MAPK (Homo sapiens (Human), UniProt Q16539). As to the kind of experiment: Fluorescence polarisation (FP) binding assay, active enzyme. On the procedure:
as §1, §2, §3

The mark [3] stands for this setting: Table 5, read-out: Ki ± SEM (μM) to inactive p38α MAPK.
[4] abbreviates: Table 6, read-out: Ki ± SEM (μM) to inactive p38α.
The mark [5] stands for this setting: Table 6, read-out: Ki ± SEM (μM) to active p38α.

Sequence of active phosphorylated p38α MAPK (Q16539 whole entry): as above

A word on the Ki: it is the equilibrium dissociation constant of an inhibitor or competing ligand from its target. Take `Fc1ccc(-c2sccc2-c2ccncc2)cc1` [Compound 3.2, 4-(2-(4-Fluorophenyl)thiophen-3-yl)pyridine]: the Ki came out at 5 ± 0.4 µM in experiment [1] (setting [3]); 5 ± 0.4 µM in experiment [1] (setting [4]); 0.6 ± 0.1 µM in experiment [2] (Table 5, read-out: Ki ± SEM (μM) to active p38α MAPK); 0.6 ± 0.1 µM in experiment [2] (setting [5]).
For the molecule `Fc1ccc(-c2sc(I)c(I)c2-c2ccncc2)cc1` [Compound 3.3, 4-(2-(4-Fluorophenyl)-4,5-diiodothiophen-3-yl)pyridine], the Ki in experiment [1] (setting [4]) and in experiment [2] (setting [5]) was above 10 µM each time.
In the case of `COC(=O)c1ccccc1-c1c(C#CCCO)sc(-c2ccc(F)cc2)c1-c1ccncc1` [Compound 3.28, Methyl 2-(5-(4-fluorophenyl)-2-(4-hydroxybut-1-yn-1-yl)-4-(pyridin-4-yl)thiophen-3-yl)benzoate], the Ki was above 10 µM in experiment [1] (setting [4]) and 8.7 µM in experiment [2] (setting [5]).
On to `COC(=O)c1cccc(-c2c(C#CCCO)sc(-c3ccc(F)cc3)c2-c2ccncc2)c1` [Compound 3.29, Methyl 3-(5-(4-fluorophenyl)-2-(4-hydroxybut-1-yn-1-yl)-4-(pyridin-4-yl)thiophen-3-yl)benzoate], for which the Ki in experiment [1] (setting [4]) is above 10 µM; in experiment [2] (setting [5]), 3 µM.
For `COC(=O)c1ccc(-c2c(C#CCCO)sc(-c3ccc(F)cc3)c2-c2ccncc2)cc1` [Compound 3.30, Methyl 4-(5-(4-fluorophenyl)-2-(4-hydroxybut-1-yn-1-yl)-4-(pyridin-4-yl)thiophen-3-yl)benzoate], in that order: above 10 µM and above 10 µM.
The corresponding values for `O=C(O)c1cccc(-c2c(C#CCCO)sc(-c3ccc(F)cc3)c2-c2ccncc2)c1` [Compound 3.31, 3-(5-(4-Fluorophenyl)-2-(4-hydroxybut-1-yn-1-yl)-4-(pyridin-4-yl)thiophen-3-yl)benzoic acid] are above 10 µM and 7.1 µM.
Regarding `O=C(O)c1ccc(-c2c(C#CCCO)sc(-c3ccc(F)cc3)c2-c2ccncc2)cc1` [Compound 3.32, 4-(5-(4-Fluorophenyl)-2-(4-hydroxybut-1-yn-1-yl)-4-(pyridin-4-yl)thiophen-3-yl)benzoic acid], the Ki in experiment [1] (setting [4]) and in experiment [2] (setting [5]) was above 10 µM in each case.
As to `OCCC#Cc1sc(-c2ccc(F)cc2)c(-c2ccncc2)c1-c1cccc(CO)c1` [Compound 3.33, 4-(5-(4-Fluorophenyl)-3-(3-(hydroxymethyl)phenyl)-4-(pyridin-4-yl)thiophen-2-yl)but-3-yn-1-ol], the values for the Ki in experiment [1] (setting [4]) and in experiment [2] (setting [5]) were above 10 µM and 1.3 ± 0.2 µM, respectively.
For the molecule `OCCC#Cc1sc(-c2ccc(F)cc2)c(-c2ccncc2)c1-c1ccc(CO)cc1` [Compound 3.34, 4-(5-(4-Fluorophenyl)-3-(4-(hydroxymethyl)phenyl)-4-(pyridin-4-yl)thiophen-2-yl)but-3-yn-1-ol], the Ki in experiment [1] (setting [4]) was above 10 µM; in experiment [2] (setting [5]), 3.5 µM.
The corresponding values for `NC(=O)c1cccc(-c2c(C#CCCO)sc(-c3ccc(F)cc3)c2-c2ccncc2)c1` [Compound 3.35, 3-(5-(4-Fluorophenyl)-2-(4-hydroxybut-1-yn-1-yl)-4-(pyridin-4-yl)thiophen-3-yl)benzamide] are above 10 µM and 2.2 ± 0.3 µM.
In the case of `NC(=O)c1ccc(-c2c(C#CCCO)sc(-c3ccc(F)cc3)c2-c2ccncc2)cc1` [Compound 3.36, 4-(5-(4-Fluorophenyl)-2-(4-hydroxybut-1-yn-1-yl)-4-(pyridin-4-yl)thiophen-3-yl)benzamide], the Ki in experiment [1] (setting [4]) was above 10 µM; in experiment [2] (setting [5]) it was 2 ± 1 µM.
For `O=C(NCCO)c1cccc(-c2c(C#CCCO)sc(-c3ccc(F)cc3)c2-c2ccncc2)c1` [Compound 3.37, 3-(5-(4-Fluorophenyl)-2-(4-hydroxybut-1-yn-1-yl)-4-(pyridin-4-yl)thiophen-3-yl)-N-(2-hydroxyethyl)benzamide], in that order: 1.9 ± 0.2 µM and 2 ± 1 µM.
As for `O=C(NCCO)c1ccc(-c2c(C#CCCO)sc(-c3ccc(F)cc3)c2-c2ccncc2)cc1` [Compound 3.38, 4-(5-(4-Fluorophenyl)-2-(4-hydroxybut-1-yn-1-yl)-4-(pyridin-4-yl)thiophen-3-yl)-N-(2-hydroxyethyl)benzamide], the Ki is above 10 µM in experiment [1] (setting [4]) and 1.7 ± 0.2 µM in experiment [2] (setting [5]).
Turning to `Nc1cccc(-c2c(C#CCCO)sc(-c3ccc(F)cc3)c2-c2ccncc2)c1` [Compound 3.39, 4-(3-(3-Aminophenyl)-5-(4-fluorophenyl)-4-(pyridin-4-yl)thiophen-2-yl)but-3-yn-1-ol], the figures for the Ki in experiment [1] (setting [4]) and in experiment [2] (setting [5]) were above 10 µM and 3.2 µM, respectively.
The corresponding values for `Nc1ccc(-c2c(C#CCCO)sc(-c3ccc(F)cc3)c2-c2ccncc2)cc1` [Compound 3.40, 4-(3-(4-Aminophenyl)-5-(4-fluorophenyl)-4-(pyridin-4-yl)thiophen-2-yl)but-3-yn-1-ol] are above 10 µM and above 10 µM.
Regarding `CC(=O)Nc1cccc(-c2c(C#CCCO)sc(-c3ccc(F)cc3)c2-c2ccncc2)c1` [Compound 3.41, N-(3-(5-(4-fluorophenyl)-2-(4-hydroxybut-1-yn-1-yl)-4-(pyridin-4-yl)thiophen-3-yl)phenyl)acetamide], the Ki in experiment [1] (setting [4]) was 2.6 ± 0.6 µM; in experiment [2] (setting [5]) it was 2 ± 0.1 µM.
With `CC(=O)Nc1ccc(-c2c(C#CCCO)sc(-c3ccc(F)cc3)c2-c2ccncc2)cc1` [Compound 3.42, N-(4-(5-(4-fluorophenyl)-2-(4-hydroxybut-1-yn-1-yl)-4-(pyridin-4-yl)thiophen-3-yl)phenyl)acetamide], the Ki in experiment [1] (setting [4]) and in experiment [2] (setting [5]) was above 10 µM throughout.
Regarding `O=C(Nc1cccc(-c2c(C#CCCO)sc(-c3ccc(F)cc3)c2-c2ccncc2)c1)c1ccccc1` [Compound 3.43, N-(3-(5-(4-fluorophenyl)-2-(4-hydroxybut-1-yn-1-yl)-4-(pyridin-4-yl)thiophen-3-yl)phenyl)benzamide], the Ki in experiment [1] (setting [4]) and in experiment [2] (setting [5]) was above 10 µM each time.
Regarding `O=C(Nc1ccc(-c2c(C#CCCO)sc(-c3ccc(F)cc3)c2-c2ccncc2)cc1)c1ccccc1` [Compound 3.44, N-(4-(5-(4-fluorophenyl)-2-(4-hydroxybut-1-yn-1-yl)-4-(pyridin-4-yl)thiophen-3-yl)phenyl)benzamide], the Ki in experiment [1] (setting [4]) and in experiment [2] (setting [5]) was above 10 µM in each case.
On to `Cc1ccc(S(=O)(=O)Nc2cccc(-c3c(C#CCCO)sc(-c4ccc(F)cc4)c3-c3ccncc3)c2)cc1` [Compound 3.45, N-(3-(5-(4-fluorophenyl)-2-(4-hydroxybut-1-yn-1-yl)-4-(pyridin-4-yl)thiophen-3-yl)phenyl)-4-methylbenzenesulfonamide], for which the Ki in experiment [1] (setting [4]) and in experiment [2] (setting [5]) was above 10 µM each time.
For the molecule `Cc1ccc(S(=O)(=O)Nc2ccc(-c3c(C#CCCO)sc(-c4ccc(F)cc4)c3-c3ccncc3)cc2)cc1` [Compound 3.46, N-(4-(5-(4-fluorophenyl)-2-(4-hydroxybut-1-yn-1-yl)-4-(pyridin-4-yl)thiophen-3-yl)phenyl)-4-methylbenzenesulfonamide], the Ki in experiment [1] (setting [4]) and in experiment [2] (setting [5]) was above 10 µM in each case.
For the molecule `N#Cc1cccc(-c2c(C#CCCO)sc(-c3ccc(F)cc3)c2-c2ccncc2)c1` [Compound 3.47, 3-(5-(4-Fluorophenyl)-2-(4-hydroxybut-1-yn-1-yl)-4-(pyridin-4-yl)thiophen-3-yl)benzonitrile], the Ki is above 10 µM in experiment [1] (setting [4]) and 1.8 ± 0.4 µM in experiment [2] (setting [5]).
For `Cc1cccc(-c2c(C#CCCO)sc(-c3ccc(F)cc3)c2-c2ccncc2)c1` [Compound 3.48, 4-(5-(4-Fluorophenyl)-4-(pyridin-4-yl)-3-(m-tolyl)thiophen-2-yl)but-3-yn-1-ol], in that order: above 10 µM and above 10 µM.
Consider `CN(C)c1ccc(-c2c(C#CCCO)sc(-c3ccc(F)cc3)c2-c2ccncc2)cc1` [Compound 3.49, 4-(3-(4-(Dimethylamino)phenyl)-5-(4-fluorophenyl)-4-(pyridin-4-yl)thiophen-2-yl)but-3-yn-1-ol], for which the Ki in experiment [1] (setting [4]) and in experiment [2] (setting [5]) was above 10 µM in each case.
In the case of `OCCC#Cc1sc(-c2ccc(F)cc2)c(-c2ccncc2)c1-c1ccc(F)cc1` [Compound 3.50, 4-(3,5-bis(4-Fluorophenyl)-4-(pyridin-4-yl)thiophen-2-yl)but-3-yn-1-ol], the Ki in experiment [1] (setting [4]) was above 10 µM; in experiment [2] (setting [5]), 0.9 ± 0.4 µM.
The corresponding values for `OCCC#Cc1sc(-c2ccc(F)cc2)c(-c2ccncc2)c1-c1ccc(Cl)cc1` [Compound 3.51, 4-(3-(4-Chlorophenyl)-5-(4-fluorophenyl)-4-(pyridin-4-yl)thiophen-2-yl)but-3-yn-1-ol] are above 10 µM and above 10 µM.
The corresponding values for `OCCC#Cc1sc(-c2ccc(F)cc2)c(-c2ccncc2)c1-c1ccc(C(F)(F)F)cc1` [Compound 3.52, 4-(5-(4-Fluorophenyl)-4-(pyridin-4-yl)-3-(4-(trifluoromethyl)phenyl)thiophen-2-yl)but-3-yn-1-ol] are above 10 µM and above 10 µM.
As for `NCC#Cc1cc(-c2ccncc2)c(-c2ccc(F)cc2)s1` [Compound 5.6, 3-(5-(4-Fluorophenyl)-4-(pyridin-4-yl)thiophen-2-yl)prop-2-yn-1-amine], the Ki in experiment [1] (setting [3]) and in experiment [1] (setting [4]) was above 10 µM each time.
